Experimental data: ChEMBL document CHEMBL1156829 (Proc Natl Acad Sci U S A, 2008)

Key:
[1] = system: Plasmodium falciparum; assay: NOVARTIS: Inhibition of Plasmodium falciparum 3D7 (drug-susceptible) proliferation in erythrocyte-based infection assay; type: functional, organism-based; conditions: Plasmodium falciparum, 3D7
[2] = system: Plasmodium falciparum; assay: NOVARTIS: Inhibition of Plasmodium falciparum W2 (drug-resistant) proliferation in erythrocyte-based infection assay; type: functional, organism-based; conditions: Plasmodium falciparum, W2; read-out: EC50
[3] = NOVARTIS: Cytotoxicity against human hepatocellular carcinoma cell line (Huh7); type: toxicity, cell-based, Huh-7; conditions: Huh7 cells (hepatocellular carcinoma cell line)

Row | Compound | EC50 [1] [nM] | EC50 [2] [nM] | CC50 [3] [nM]
1 | OCC[n+]1c2ccccc2nc2ccc(N3CCOCC3)cc21.[O-][Cl+3]([O-])([O-])[O-] | 243 | 56.4 | 35000
2 | CCN(CC)CCCC(C)Nc1cc(C=Cc2ccc([N+](=O)[O-])cc2)nc2cc(OC)ccc12 (centres undefined) | 31.6 | 32.3 | 20200
3 | CC(=NNC(=O)/C(=C\c1ccc([N+](=O)[O-])cc1)NC(=O)c1ccccc1)c1ccccn1 | 343 | 169 | > 100000
4 | O=C(CCc1ccccc1)c1ccccc1OCC(O)CN1CCCCC1 (centres undefined) | 881 | 144 | 87900
5 | COc1cccc(NC(=O)c2cccc3c(=O)c4c([nH]c23)CCCC4)c1 | 957 | 168 | > 100000
6 | Cc1cc(C)c2c(c1)c(-c1ccccc1)c(-c1ccccc1)n2CC(O)Cn1cnc(-c2ccccc2)c1-c1ccccc1 (centres undefined) | 1350 | 155 | > 100000
7 | COC(=O)C1=CNC=C(C(=O)OC)C1c1ccc(Cl)c([N+](=O)[O-])c1 | 135 | 165 | > 100000
8 | O=C(Nc1cc(C(F)(F)F)ccc1N1CCOCC1)C(Cl)(Cl)Cl | 376 | 116 | 74800
9 | COc1ccccc1C1CC(c2ccccc2)=NN1C(=O)c1ccccc1 (centres undefined) | 262 | 110 | 67000
10 | Cc1oc2c(c1C(=O)N1CCC(C)CC1)C(=O)c1ccccc1C2=O | 222 | 79.2 | 48300
11 | CCc1ccc(C(Nc2cc(C)ccn2)c2ccc3cccnc3c2O)cc1 (centres undefined) | 1470 | 163 | > 100000
12 | COc1ccc(C2CC(=O)C3=C(C2)NC(C)=C(C(=O)OC2CCCC2)C3c2ccc(F)cc2)cc1OC (centres undefined) | 12.6 | 19.3 | 11600
13 | O=C(Cc1ccccc1)N1CCOc2c(cc(-c3csc4ccccc34)cc2OCCc2ccccn2)C1 | 257 | 165 | > 100000
14 | C=CCSc1nc(N)c2c3c(sc2n1)CN(CCC)CC3 | 623 | 168 | > 100000
15 | COCC(=O)NCc1ccc(OC2CCN(CC(c3ccccc3)c3ccccc3)CC2)cc1 | 460 | < 16.7 | > 10000
16 | COCCOC(=O)NCc1ccc(Nc2c(C(C)(C)C)nc3cnccn23)cc1 | 102 | 15.5 | > 10000
17 | COc1ccc(OC)c(-c2ccc(O)c(CN3CCCC(C)C3)c2)c1 (centres undefined) | 131 | 94.5 | 61000
18 | CCOc1cc(C2CC(=O)NC3=C2C(=O)CC(c2ccc(OC)c(OC)c2)C3)ccc1O (centres undefined) | 781 | 155 | > 100000
19 | CCN(CC)CCNc1ccnc2cc3ccccc3cc12 | 28.6 | 31.3 | 20300
20 | Cc1ccc(C)c(NC(=O)C2CCCN(c3nnc(N4CCCC4=O)s3)C2)c1 (centres undefined) | > 5750 | 154 | > 100000
21 | Cc1cc(C)c2c(c1)-c1c(ssc1=S)C(C)(C)N2C(=O)COc1nc2ccccc2s1 | 125 | 169 | > 100000
22 | C=CC1CC23CC(C(OC(=O)CCC(=O)O)c4ccnc5ccc(OC)cc45)N2CCC13 (centres undefined) | 14 | 77.5 | 45700
23 | N=c1c2c(n(Cc3ccccc3Cl)c3c1CCC3)CCCC2 | 222 | 174 | > 100000
24 | Cc1ccc(Cn2c(SCc3ccc(C(=O)NCCc4ccccc4)cc3)nc3ccncc32)cc1 | 700 | 174 | > 100000
25 | COc1cccc(-c2ccc(O)c(CN3CCC(C)CC3)c2)n1 | 337 | 129 | 75000
26 | C#CCNC(=O)c1ccc(OC2CCN(CC(c3ccccc3)c3ccccc3)CC2)c(OC)c1 | 207 | 88.3 | 55000
27 | CCOC(=O)c1nnn(-c2nonc2N)c1-c1ccc(Cl)cc1 | 397 | 160 | > 100000

Row | Compound | EC50 [1] [nM] | EC50 [2] [nM] | CC50 [3] [nM]
28 | O=C(NCc1ccccc1)c1cnc(NCCC(c2ccccc2)c2ccccc2)nc1NC1CC1 | > 1160 | < 15.8 | > 10000
29 | Cc1ccc(NC(=O)N(CCN(C)C)Cc2cc3cc4c(cc3[nH]c2=O)OCCO4)cc1 | 984 | 157 | > 100000
30 | COc1ccc(CCNc2nc(NCCCN3CCCCC3C)ncc2C(=O)NCc2ccccc2)cc1OC (centres undefined) | 323 | < 16.1 | > 10000
31 | CCN(CC)C(=O)CSc1nnc(-c2ccccn2)n1-c1ccc(OC)cc1 | 1290 | < 5.58 | 3190
32 | Oc1ccc(-c2ccnc3cc(Cl)ccc23)cc1CNCC1(O)CCCCC1 | 1020 | < 23.8 | > 13700
33 | CCOC(=O)C1=C(C)NC2=C(C(=O)C(C(=O)OCC)C(c3cccc(OC)c3)C2)C1c1ccc(OC)c(OC)c1 (centres undefined) | 376 | 167 | > 100000
34 | CC(C(=O)NCCCN)N(Cc1ccccc1)S(C)(=O)=O (centres undefined) | > 1250 | 16.2 | > 10000
35 | CC(C)CC(N)C(=O)N1CCn2c(nc(-c3ccccc3)c2Nc2ccc3c(c2)OCO3)C1 (centres undefined) | 119 | 122 | > 79500
36 | CCOC(=O)C1=C(C)NC(=Cc2cc(C)n(-c3ccc(C)cc3)c2C)C1=O | 121 | 169 | > 100000
37 | CCOC(=O)C1CCN(C(c2cc3cc(OC)c(OC)cc3[nH]c2=O)c2nnnn2Cc2ccccc2)CC1 (centres undefined) | 419 | 158 | > 100000
38 | CCOC(=O)CCC(=O)N(C)CCCNc1ccnc2cc(Cl)ccc12 | 673 | < 15.6 | > 10000
39 | CCOC(=O)CCCCC(=O)c1[nH]c(=O)[nH]c1Cn1ccnc1 | 152 | 165 | > 100000
40 | CCN1CCN(Cc2c(O)ccc3c(=O)c(Oc4cccc(C)c4)c(C(F)(F)F)oc23)CC1 | 1130 | 161 | > 100000
41 | CC(C)CN(CC(=O)Nc1cc(C(C)(C)C)nn1-c1ccccc1)C(=O)c1cc(Cl)cc(Cl)c1 | 1230 | < 16.7 | > 10000
42 | COC(=O)[C@@H]1C[C@@H](NC(=O)c2ccc(OC)cc2OC)CN1Cc1ccc(C(F)(F)F)cc1 | 347 | 159 | > 100000
43 | COc1ccc(C2Sc3ccccc3N=C3C2=C(O)c2ccccc23)cc1 (centres undefined) | 238 | 174 | > 100000
44 | CN(CCCNc1ccnc2cc(Cl)ccc12)C(=O)c1ccc(-c2ccccc2)cc1 | 326 | < 15.6 | 10000
45 | CC(=O)Nc1c(NCc2ccccc2)c2ccccc2sc1=O | 505 | 154 | > 100000
46 | COc1ccccc1NC(=O)N1CCN(C(=O)c2nc(-c3ccccc3)nc(C)c2C(=O)OC(C)C)CC1C (centres undefined) | 529 | < 16.9 | > 10000
47 | CCN(CC)CCN1C(=O)c2ccccc2NC1c1ccc(N(C)C)cc1 (centres undefined) | 285 | 157 | > 100000
48 | COC(=O)C1=CNC=C(C(=O)OC)C1c1ccc(Cl)c(Cl)c1 | 114 | 105 | > 64900
49 | CCN1c2ccccc2N(C)C1(C)c1ccccc1 (centres undefined) | 46.5 | 49.3 | 28800
50 | COc1ccc(-[n+]2cc(-c3ccc(Br)cc3)n3c2SCCC3)cc1 | 609 | 172 | > 100000
51 | CCCN1CCN(C(=O)C(=O)Nc2ccc3nc4n(c(=O)c3c2)CCCCC4)CC1 | 1680 | 165 | > 100000
52 | Cc1cc(C)n(-c2cc(NN=Cc3cc(Br)ccc3O)nc(C)n2)n1 | 237 | 154 | > 100000
53 | COc1ccccc1NC(=O)N(Cc1ccccc1)C(C)c1nc2ccccc2c(=O)n1-c1cc(C)ccc1OC (centres undefined) | 344 | < 15.6 | > 10000
